Test results from patent publication US9783573B2, “IAP antagonists” (BRISTOL-MYERS SQUIBB COMPANY, priority 2012, dated 2017).

How the values were obtained:
[1] = biological target: His-BIR2-3 (125-356, C202A/C213G, XIAP) (Homo sapiens (Human), UniProt P98170, C202A/C213G); assay: XIAP-BIR2-3 Dimeric SMAC Peptide Homogeneous Time Resolved Fluorescence (HTRF) Assay; format: binding; details: fluorescein labeled dimeric SMAC peptide
Experimental: D. XIAP-BIR2-3 Dimeric SMAC Peptide Homogeneous Time Resolved Fluorescence (HTRF) Assay
(§1) Assays were performed in black, flat-bottom, 384-well plates.

His-BIR3 (241-356, XIAP) = His-BIR3 (241-356, XIAP) (Homo sapiens (Human), UniProt P98170); assay: XIAP-BIR3/SMAC Homogeneous Time Resolved Fluorescence (HTRF) Assay; format: binding; details: fluorescein labeled SMAC peptide
Experimental: B. XIAP-BIR3/SMAC Homogeneous Time Resolved Fluorescence (HTRF) Assay
as §1

Structure (SMILES)	IC50 [1] [nM]	IC50 (His-BIR3 (241-356, XIAP)) [nM]
CN[C@@H](C)C(=O)N[C@H](C(=O)N1C[C@@H](NC(=O)c2ccc(C(=O)Nc3ccc4c(c3)CN(C(=O)[C@@H](NC(=O)[C@H](C)NC)C(C)(C)SCC(=O)Nc3nccs3)[C@H](C(=O)N[C@@H]3CCCc5ccccc53)C4)cc2)C[C@H]1C(=O)N[C@@H]1CCCc2ccccc21)C(C)(C)C [Example 60, N^1-((3S,5S)-1-((S)-3,3-Dimethyl-2-((S)-2-(methylamino)propanamido)butanoyl)-5-(((R)-1,2,3,4-tetrahydronaphthalen-1-yl)carbamoyl)pyrrolidin-3-yl)-N^4-((S)-2-((R)-3-methyl-2-((S)-2-(methylamino)propanamido)-3-((2-oxo-2-(thiazol-2-ylamino)ethyl)thio)butanoyl)-3-(((R)-1,2,3,4-tetrahydronaphthalen-1-yl)carbamoyl)-1,2,3,4-tetrahydroisoquinolin-7-yl)terephthalamide]	22	42
CN[C@@H](C)C(=O)N[C@H](C(=O)N1C[C@@H](NC(=O)c2ccc(C(=O)Nc3ccc4c(c3)CN(C(=O)[C@@H](NC(=O)[C@H](C)NC)C(C)(C)SCC(=O)N3CCOCC3)[C@H](C(=O)N[C@@H]3CCCc5ccccc53)C4)cc2)C[C@H]1C(=O)N[C@@H]1CCCc2ccccc21)C(C)(C)C [Example 61, N^1-((3S,5S)-1-((S)-3,3-Dimethyl-2-((S)-2-(methylamino)propanamido)butanoyl)-5-(((R)-1,2,3,4-tetrahydronaphthalen-1-yl)carbamoyl)pyrrolidin-3-yl)-N^4-((S)-2-((R)-3-methyl-2-((S)-2-(methylamino)propanamido)-3-((2-morpholino-2-oxoethyl)thio)butanoyl)-3-(((R)-1,2,3,4-tetrahydronaphthalen-1-yl)carbamoyl)-1,2,3,4-tetrahydroisoquinolin-7-yl)terephthalamide]	16	31
CN[C@@H](C)C(=O)N[C@H](C(=O)N1C[C@@H](NC(=O)c2ccc(C(=O)Nc3ccc4c(c3)CN(C(=O)[C@@H](NC(=O)[C@H](C)NC)C(C)(C)SCC(=O)N(C)Cc3cccc(F)c3)[C@H](C(=O)N[C@@H]3CCCc5ccccc53)C4)cc2)C[C@H]1C(=O)N[C@@H]1CCCc2ccccc21)C(C)(C)C [Example 62, N^1-((3S,5S)-1-((S)-3,3-Dimethyl-2-((S)-2-(methylamino)propanamido)butanoyl)-5-(((R)-1,2,3,4-tetrahydronaphthalen-1-yl)carbamoyl)pyrrolidin-3-yl)-N^4-((S)-2-((R)-3-((2-((3-fluorobenzyl)(methyl)amino)-2-oxoethyl)thio)-3-methyl-2-((S)-2-(methylamino)propanamido)butanoyl)-3-(((R)-1,2,3,4-tetrahydronaphthalen-1-yl)carbamoyl)-1,2,3,4-tetrahydroisoquinolin-7-yl)terephthalamide]	58	73
CN[C@@H](C)C(=O)N[C@H](C(=O)N1C[C@@H](NC(=O)c2ccc(C(=O)Nc3ccc4c(c3)CN(C(=O)[C@@H](NC(=O)[C@H](C)NC)C(C)(C)SCC(=O)NCCO)[C@H](C(=O)N[C@@H]3CCCc5ccccc53)C4)cc2)C[C@H]1C(=O)N[C@@H]1CCCc2ccccc21)C(C)(C)C [Example 63, N^1-((3S,5S)-1-((S)-3,3-Dimethyl-2-((S)-2-(methylamino)propanamido)butanoyl)-5-(((R)-1,2,3,4-tetrahydronaphthalen-1-yl)carbamoyl)pyrrolidin-3-yl)-N^4-((S)-2-((R)-3-((2-((2-hydroxyethyl)amino)-2-oxoethyl)thio)-3-methyl-2-((S)-2-(methylamino)propanamido)butanoyl)-3-(((R)-1,2,3,4-tetrahydronaphthalen-1-yl)carbamoyl)-1,2,3,4-tetrahydroisoquinolin-7-yl)terephthalamide]	5	17
CN[C@@H](C)C(=O)N[C@H](C(=O)N1C[C@@H](NC(=O)c2ccc(C(=O)Nc3ccc4c(c3)CN(C(=O)[C@@H](NC(=O)[C@H](C)NC)C(C)(C)SCC(=O)N(C)C)[C@H](C(=O)N[C@@H]3CCCc5ccccc53)C4)cc2)C[C@H]1C(=O)N[C@@H]1CCCc2ccccc21)C(C)(C)C [Example 64, N^1-((3S,5S)-1-((S)-3,3-Dimethyl-2-((S)-2-(methylamino)propanamido)butanoyl)-5-(((R)-1,2,3,4-tetrahydronaphthalen-1-yl)carbamoyl)pyrrolidin-3-yl)-N^4-((S)-2-((R)-3-((2-(dimethylamino)-2-oxoethyl)thio)-3-methyl-2-((S)-2-(methylamino)propanamido)butanoyl)-3-(((R)-1,2,3,4-tetrahydronaphthalen-1-yl)carbamoyl)-1,2,3,4-tetrahydroisoquinolin-7-yl)terephthalamide]	10	14
CN[C@@H](C)C(=O)N[C@H](C(=O)N1C[C@@H](NC(=O)c2ccc(C(=O)Nc3ccc4c(c3)CN(C(=O)[C@@H](NC(=O)[C@H](C)NC)C(C)(C)SCCO)[C@H](C(=O)N[C@@H]3CCCc5ccccc53)C4)cc2)C[C@H]1C(=O)N[C@@H]1CCCc2ccccc21)C(C)(C)C [Example 67, N^1-((3S,5S)-1-((S)-3,3-Dimethyl-2-((S)-2-(methylamino)propanamido)butanoyl)-5-(((R)-1,2,3,4-tetrahydronaphthalen-1-yl)carbamoyl)pyrrolidin-3-yl)-N^4-((S)-2-((R)-3-((2-hydroxyethyl)thio)-3-methyl-2-((S)-2-(methylamino)propanamido)butanoyl)-3-(((R)-1,2,3,4-tetrahydronaphthalen-1-yl)carbamoyl)-1,2,3,4-tetrahydroisoquinolin-7-yl)terephthalamide]	6	14
CN[C@@H](C)C(=O)N[C@H](C(=O)N1C[C@@H](NC(=O)c2ccc(C(=O)Nc3ccc4c(c3)CN(C(=O)[C@@H](NC(=O)[C@H](C)NC)C(C)(C)SCc3ncc(C(C)(C)C)o3)[C@H](C(=O)N[C@@H]3CCCc5ccccc53)C4)cc2)C[C@H]1C(=O)N[C@@H]1CCCc2ccccc21)C(C)(C)C [Example 68, N^1-((S)-2-((R)-3-(((5-(tert-Butyl)oxazol-2-yl)methyl)thio)-3-methyl-2-((S)-2-(methylamino)propanamido)butanoyl)-3-(((R)-1,2,3,4-tetrahydronaphthalen-1-yl)carbamoyl)-1,2,3,4-tetrahydroisoquinolin-7-yl)-N^4-((3S,5S)-1-((S)-3,3-dimethyl-2-((S)-2-(methylamino)propanamido)butanoyl)-5-(((R)-1,2,3,4-tetrahydronaphthalen-1-yl)carbamoyl)pyrrolidin-3-yl)terephthalamide]	160	260
